{"source": "patent EP0155825A2", "about": "“Novel choline derivatives” (NITTO BOSEKI CO., LTD., priority 1984, dated 1985)", "assay": "Stability against non-enzymatic hydrolysis in buffer", "type": "physicochemical", "conditions": "1/15 molar phosphate buffer (pH 8.20) at 37°C for 90 minutes", "data": [{"smiles": "C[N+](C)(C)CCOC(=O)c1ccc(O)c(O)c1.[I-]", "note": "[DHBCI, 3,4-dihydroxybenzoylcholine iodide]", "values": [{"measurement": "non-enzymatic hydrolysis", "result": "substantially no hydrolysis"}]}]}
